Test results: PubChem BioAssay (NCI)
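Interpolation was linear, between the two tested concentrations surrounding the appropriate level; five concentrations were tested over 48 hours in 96-well plates. TGI denotes the concentration required for complete inhibition of growth.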

How the values were obtained:
Experiment in all cases: NCI tumour cell line growth inhibition, 48 h
A498 renal = test system: A498 renal
SF-539 CNS = test system: SF-539 CNS
OVCAR-8 ovarian = test system: OVCAR-8 ovarian
SNB-75 CNS = test system: SNB-75 CNS
IGROV1 ovarian = test system: IGROV1 ovarian
MDA-N = test system: MDA-N
SW-620 colon = test system: SW-620 colon
HT29 colon = test system: HT29 colon
OVCAR-4 ovarian = test system: OVCAR-4 ovarian
A549 NSCLC = test system: A549 NSCLC
SR leukemia = test system: SR leukemia
MALME-3M melanoma = test system: MALME-3M melanoma
MOLT-4 leukemia = test system: MOLT-4 leukemia
SK-MEL-28 melanoma = test system: SK-MEL-28 melanoma
HOP-62 NSCLC = test system: HOP-62 NSCLC
OVCAR-3 ovarian = test system: OVCAR-3 ovarian
HL-60(TB) leukemia = test system: HL-60(TB) leukemia
LOX IMVI melanoma = test system: LOX IMVI melanoma
UACC-257 melanoma = test system: UACC-257 melanoma
BT-549 breast = test system: BT-549 breast
ACHN renal = test system: ACHN renal
NCI-H23 lung = test system: NCI-H23 lung
T-47D breast = test system: T-47D breast
SF-295 CNS = test system: SF-295 CNS
MCF7 breast = test system: MCF7 breast
HOP-92 NSCLC = test system: HOP-92 NSCLC
CAKI-1 renal = test system: CAKI-1 renal
HCT-15 colon = test system: HCT-15 colon
K-562 leukemia = test system: K-562 leukemia
COLO 205 colon = test system: COLO 205 colon
SF-268 CNS = test system: SF-268 CNS
SK-MEL-2 melanoma = test system: SK-MEL-2 melanoma
DU-145 prostate = test system: DU-145 prostate
UACC-62 melanoma = test system: UACC-62 melanoma
786-0 renal = test system: 786-0 renal
M14 melanoma = test system: M14 melanoma
RXF 393 renal = test system: RXF 393 renal
PC-3 prostate = test system: PC-3 prostate
SK-OV-3 ovarian = test system: SK-OV-3 ovarian
HCT-116 colon = test system: HCT-116 colon
UO-31 renal = test system: UO-31 renal
MDA-MB-231 breast = test system: MDA-MB-231 breast
U251 CNS = test system: U251 CNS
HS 578T breast = test system: HS 578T breast
NCI-H522 lung = test system: NCI-H522 lung
CCRF-CEM leukemia = test system: CCRF-CEM leukemia
NCI/ADR-RES ovarian = test system: NCI/ADR-RES ovarian
OVCAR-5 ovarian = test system: OVCAR-5 ovarian
NCI-H460 lung = test system: NCI-H460 lung
SN12C renal = test system: SN12C renal
NCI-H226 lung = test system: NCI-H226 lung
SK-MEL-5 melanoma = test system: SK-MEL-5 melanoma
TK-10 renal = test system: TK-10 renal
RPMI-8226 leukemia = test system: RPMI-8226 leukemia
MDA-MB-435 = test system: MDA-MB-435
KM12 colon = test system: KM12 colon
HCC-2998 colon = test system: HCC-2998 colon
EKVX NSCLC = test system: EKVX NSCLC
SNB-19 CNS = test system: SNB-19 CNS

SMILES: Cc1c([N+](=O)[O-])ccc2c(NCCCN(C)C)ccnc12
- TGI (A498 renal): 82.7 µM
- TGI (SF-539 CNS): 31.2 µM
- TGI (OVCAR-8 ovarian): > 100 µM
- TGI (SNB-75 CNS): > 100 µM
- TGI (IGROV1 ovarian): 52.7 µM
- TGI (MDA-N): 28.4 µM
- TGI (SW-620 colon): 55.6 µM
- TGI (HT29 colon): 34.1 µM
- TGI (OVCAR-4 ovarian): 41 µM
- TGI (A549 NSCLC): 40.5 µM
- TGI (SR leukemia): > 100 µM
- TGI (MALME-3M melanoma): 31.7 µM
- TGI (MOLT-4 leukemia): > 100 µM
- TGI (SK-MEL-28 melanoma): 54.5 µM
- TGI (HOP-62 NSCLC): > 100 µM
- TGI (OVCAR-3 ovarian): 50.8 µM
- TGI (HL-60(TB) leukemia): > 100 µM
- TGI (LOX IMVI melanoma): 30.9 µM
- TGI (UACC-257 melanoma): 31.4 µM
- TGI (BT-549 breast): 36.2 µM
- TGI (ACHN renal): > 100 µM
- TGI (NCI-H23 lung): 34.6 µM
- TGI (T-47D breast): 76.5 µM
- TGI (SF-295 CNS): 60.4 µM
- TGI (MCF7 breast): 37.2 µM
- TGI (HOP-92 NSCLC): 61.5 µM
- TGI (CAKI-1 renal): > 100 µM
- TGI (HCT-15 colon): 32.7 µM
- TGI (K-562 leukemia): > 100 µM
- TGI (COLO 205 colon): 24.7 µM
- TGI (SF-268 CNS): > 100 µM
- TGI (SK-MEL-2 melanoma): 31.8 µM
- TGI (DU-145 prostate): > 100 µM
- TGI (UACC-62 melanoma): 39.4 µM
- TGI (786-0 renal): 89.3 µM
- TGI (M14 melanoma): 29.9 µM
- TGI (RXF 393 renal): 60.8 µM
- TGI (PC-3 prostate): 41.6 µM
- TGI (SK-OV-3 ovarian): > 100 µM
- TGI (HCT-116 colon): 35.3 µM
- TGI (UO-31 renal): 30.5 µM
- TGI (MDA-MB-231 breast): 56.6 µM
- TGI (U251 CNS): > 100 µM
- TGI (HS 578T breast): 74.1 µM
- TGI (NCI-H522 lung): 31.9 µM
- TGI (CCRF-CEM leukemia): > 100 µM
- TGI (NCI/ADR-RES ovarian): > 100 µM
- TGI (OVCAR-5 ovarian): 92.5 µM
- TGI (NCI-H460 lung): 33.2 µM
- TGI (SN12C renal): > 100 µM
- TGI (NCI-H226 lung): 72.5 µM
- TGI (SK-MEL-5 melanoma): 29.6 µM
- TGI (TK-10 renal): 80.6 µM
- TGI (RPMI-8226 leukemia): > 100 µM
- TGI (MDA-MB-435): 34.9 µM
- TGI (KM12 colon): 32.1 µM

SMILES: CC1(c2cccs2)CC(c2cccs2)=C(C#N)C(=C(C#N)C#N)N1 (stereo unspecified)
- TGI (A498 renal): 35.8 µM
- TGI (SF-539 CNS): 70 µM
- TGI (OVCAR-8 ovarian): 42.9 µM
- TGI (SNB-75 CNS): 33.2 µM
- TGI (IGROV1 ovarian): 33.4 µM
- TGI (MDA-N): 31.1 µM
- TGI (SW-620 colon): 43.7 µM
- TGI (HT29 colon): 34.4 µM
- TGI (OVCAR-4 ovarian): 32.3 µM
- TGI (A549 NSCLC): 48.6 µM
- TGI (SR leukemia): > 100 µM
- TGI (MALME-3M melanoma): 35 µM
- TGI (MOLT-4 leukemia): > 100 µM
- TGI (SK-MEL-28 melanoma): 50.2 µM
- TGI (HOP-62 NSCLC): 39.7 µM
- TGI (OVCAR-3 ovarian): 32.1 µM
- TGI (HL-60(TB) leukemia): 33.1 µM
- TGI (LOX IMVI melanoma): 32.4 µM
- TGI (HCC-2998 colon): 31.1 µM
- TGI (UACC-257 melanoma): 32.7 µM
- TGI (BT-549 breast): 57.5 µM
- TGI (ACHN renal): 32.1 µM
- TGI (NCI-H23 lung): 38.8 µM
- TGI (T-47D breast): 39.4 µM
- TGI (SF-295 CNS): 32.6 µM
- TGI (MCF7 breast): 39.1 µM
- TGI (HOP-92 NSCLC): 30.8 µM
- TGI (CAKI-1 renal): 37 µM
- TGI (HCT-15 colon): 33.8 µM
- TGI (K-562 leukemia): > 100 µM
- TGI (COLO 205 colon): 39.9 µM
- TGI (SF-268 CNS): 35.9 µM
- TGI (SK-MEL-2 melanoma): 37.4 µM
- TGI (DU-145 prostate): 28.9 µM
- TGI (UACC-62 melanoma): 29.6 µM
- TGI (786-0 renal): 35 µM
- TGI (M14 melanoma): 40.5 µM
- TGI (RXF 393 renal): 38.7 µM
- TGI (PC-3 prostate): 29.8 µM
- TGI (SK-OV-3 ovarian): 37.1 µM
- TGI (HCT-116 colon): 31.6 µM
- TGI (EKVX NSCLC): 33.6 µM
- TGI (UO-31 renal): 34.8 µM
- TGI (MDA-MB-231 breast): 50.6 µM
- TGI (U251 CNS): 31 µM
- TGI (HS 578T breast): 69.5 µM
- TGI (CCRF-CEM leukemia): 27.9 µM
- TGI (NCI/ADR-RES ovarian): 49.5 µM
- TGI (OVCAR-5 ovarian): 39.3 µM
- TGI (SNB-19 CNS): 36.6 µM
- TGI (NCI-H460 lung): 43.9 µM
- TGI (SN12C renal): 35.6 µM
- TGI (NCI-H226 lung): 90 µM
- TGI (SK-MEL-5 melanoma): 28.8 µM
- TGI (TK-10 renal): 36.5 µM
- TGI (RPMI-8226 leukemia): 61.5 µM
- TGI (MDA-MB-435): 31.8 µM
- TGI (KM12 colon): 32.3 µM

SMILES: C1C2CC3CC1CC(Nc1nc(NC45CC6CC(CC(C6)C4)C5)nc(NC45CC6CC(CC(C6)C4)C5)n1)(C2)C3
- TGI (A498 renal): > 100 µM
- TGI (SF-539 CNS): > 100 µM
- TGI (OVCAR-8 ovarian): > 65.5 µM
- TGI (SNB-75 CNS): > 79.2 µM
- TGI (MDA-N): > 100 µM
- TGI (SW-620 colon): > 100 µM
- TGI (HT29 colon): > 100 µM
- TGI (OVCAR-4 ovarian): > 100 µM
- TGI (A549 NSCLC): > 100 µM
- TGI (SR leukemia): > 100 µM
- TGI (MALME-3M melanoma): > 100 µM
- TGI (MOLT-4 leukemia): > 100 µM
- TGI (SK-MEL-28 melanoma): > 93.2 µM
- TGI (HOP-62 NSCLC): > 100 µM
- TGI (OVCAR-3 ovarian): > 100 µM
- TGI (HL-60(TB) leukemia): > 100 µM
- TGI (LOX IMVI melanoma): > 52.1 µM
- TGI (HCC-2998 colon): > 100 µM
- TGI (UACC-257 melanoma): > 100 µM
- TGI (BT-549 breast): > 100 µM
- TGI (ACHN renal): > 100 µM
- TGI (NCI-H23 lung): > 100 µM
- TGI (T-47D breast): > 100 µM
- TGI (SF-295 CNS): > 100 µM
- TGI (MCF7 breast): > 100 µM
- TGI (HOP-92 NSCLC): > 100 µM
- TGI (CAKI-1 renal): > 100 µM
- TGI (HCT-15 colon): > 100 µM
- TGI (K-562 leukemia): > 100 µM
- TGI (COLO 205 colon): > 94.9 µM
- TGI (SF-268 CNS): > 100 µM
- TGI (SK-MEL-2 melanoma): > 100 µM
- TGI (DU-145 prostate): > 100 µM
- TGI (UACC-62 melanoma): > 100 µM
- TGI (786-0 renal): > 44.1 µM
- TGI (M14 melanoma): > 100 µM
- TGI (RXF 393 renal): > 100 µM
- TGI (PC-3 prostate): > 100 µM
- TGI (SK-OV-3 ovarian): > 100 µM
- TGI (HCT-116 colon): > 100 µM
- TGI (EKVX NSCLC): > 77.5 µM
- TGI (UO-31 renal): > 100 µM
- TGI (MDA-MB-231 breast): > 100 µM
- TGI (U251 CNS): > 100 µM
- TGI (HS 578T breast): > 100 µM
- TGI (CCRF-CEM leukemia): > 100 µM
- TGI (NCI/ADR-RES ovarian): > 100 µM
- TGI (OVCAR-5 ovarian): > 100 µM
- TGI (SNB-19 CNS): > 100 µM
- TGI (NCI-H460 lung): > 100 µM
- TGI (SN12C renal): > 100 µM
- TGI (NCI-H226 lung): > 100 µM
- TGI (SK-MEL-5 melanoma): > 42.8 µM
- TGI (TK-10 renal): > 100 µM
- TGI (RPMI-8226 leukemia): > 100 µM
- TGI (MDA-MB-435): > 100 µM
- TGI (KM12 colon): > 51.5 µM
